Test results: patent publication US9200008B2 (ASKA PHARMACEUTICAL CO., LTD., priority 2010, dated 2015)

The compounds below were run on Human prostate cancer cell lines (PC-3 cells) (assay: Measurement of cell death-inducing activity (Test Example 1)). Settings: PC-3, 48 h, 48 hours after addition, tested at 10, 1, 0.1, 0.025 and 0.00625 μmol/L, qualitative evaluation of 10 fields, read-out: Concentration showing the cell death-inducing activity (cell death-inducing rate not less than 40%).
Type: cell-based
Outline: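 Compound treatment lasted 48 h at 10 to 0.00625 μmol/L (five levels, DMSO as control) on PC-3 cells pre-cultured 48 h at 37 °C, 5% CO2 after seeding at 1×10^5 cells/well. A cell death-inducing rate of 40% or more counted as active.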

Structure (SMILES)	minimal effective concentration [µM]
Cc1cc(/C=N/NC(=O)c2sc(-c3ccc(Cl)cc3)nc2C)cc(C)c1O [Example 23-8]	1
CCc1nc(-c2ccc(Cl)cc2C)sc1NC(=O)OCc1ccc2nn(CC)cc2c1 [Example 9-370]	0.1
COc1ccc(CN(C)NC(=O)c2sc(-c3ccc(Cl)cc3C)nc2C)cc1O [Example 16-25]	0.1
COc1cc(C)ccc1-c1nc(C)c(NC(=O)OCc2ccc3c(c2)nc2n3CC(O)C2)s1 (centres unmarked) [Example 9-341]	0.025
COc1cc(Cl)ccc1-c1cc(NC(=O)OCc2ccc3c(c2)nc(C)n3C)n(C)n1 [Example 9-239]	0.025
Cc1ccc(-c2nc(C)c(COC(=O)Nc3ccc4c(c3)nc3n4CCOC3)s2)c(C)c1 [Example 13-24]	0.025
COc1ccc(-c2cc(NC(=O)OCc3ccc4nn(C)cc4c3)n(C)n2)c(OC)c1 [Example 9-294]	1
COc1cc(C)ccc1-c1nc(C)c(NC(=O)OCc2ccc3c(c2)nc2n3CCN(C)C2)s1 [Example 38-2, [2-(2-Methoxy-4-methylphenyl)-4-methylthiazol-5-yl]carbamic acid 2-methyl-1,2,3,4-tetrahydrobenzo[4,5]imidazo[1,2-a]pyrazin-8-ylmethyl ester]	10
COc1ccc(/C=N/NC(=O)c2cc(-c3ccccc3OC)ns2)cc1O [Example 27-7]	0.1
COc1ccc(/C=N/NC(=O)c2sc(-c3cccc(OC)c3C)nc2C)cc1O [Example 23-130]	1
COc1ccc(/C=N/NC(=O)c2sc(-c3cnccc3C)nc2C)cc1O [Example 23-135]	1
CCn1nnc2cc(COC(=O)Nc3sc(-c4ccc(C)cc4C)nc3C)ccc21 [Example 9-26]	0.025
CCc1nc(-c2ccc(F)cc2C)sc1COC(=O)Nc1ccc2c(c1)ncn2C [Example 13-149]	0.025
COc1ccc(CN(C)NC(=O)c2sc(-c3ccc(F)cc3F)nc2C)cc1 [Example 16-7]	1
CCCCCCc1nc(-c2ccc(Cl)cc2)sc1C(=O)N/N=C/c1ccc(OC)c(O)c1 [Example 23-30]	10
COc1ccc(/C=N/NC(=O)c2sc(-c3cccc4c3OCCO4)nc2C)cc1O [Example 23-154]	10
COc1ccc(/C=N/NC(=O)c2sc(-c3ccc(Cl)cc3)nc2C)cc1O [Example 23-7]	0.1
COCCn1cnc2cc(NC(=O)OCc3cc(-c4ccc(Cl)cc4OC)nn3C)ccc21 [Example 13-94]	1
COc1cc(F)ccc1-c1cc(COC(=O)Nc2ccc3c(c2)ncn3C)n(C)n1 [Example 13-80]	0.00625
COc1cc(Cl)ccc1-c1nc(C)c(NC(=O)OCc2ccc3c(c2)nnn3C)s1 [Example 9-15]	0.00625
CCn1cc2cc(COC(=O)Nc3sc(-c4ccc(OC)cc4OC)nc3C)ccc2n1 [Example 9-156]	0.1
CCn1nc(-c2ccc(C)cc2OC)cc1COC(=O)Nc1ccc2c(c1)nc1n2CCCC1 [Example 13-121]	0.025

Structure (SMILES)	minimal effective concentration [µM]
CCn1nc(-c2ccccc2OC)cc1NC(=O)OCc1ccc2c(c1)ncn2CC [Example 9-216]	1
Cc1nc(-c2ccc(Cl)cc2)sc1C(=O)N/N=C/c1ccc(O)c2ccccc12 [Example 23-110]	1
CCn1cnc2cc(NC(=O)OCc3cc(-c4ccccc4OC)nn3C)ccc21 [Example 13-78]	0.1
CCCOc1ccccc1-c1nc(C)c(C(=O)N/N=C/c2ccc(OC)cc2)s1 [Example 23-149]	0.1
CCN(Cc1ccc(OC)cc1)NC(=O)c1cc(-c2ccc(Cl)cc2OC)n[nH]1 [Example 18-2, 5-(4-Chloro-2-methoxyphenyl)-2H-pyrazole-3-carboxylic acid N′-ethyl-N′-(4-methoxybenzyl)hydrazide]	1
COc1ccccc1-c1cc(COC(=O)Nc2ccc3c(c2)ncn3C)n(C)n1 [Example 13-76]	0.025
CCn1cnc2cc(COC(=O)Nc3cc(-c4ccc(C)cc4C)nn3C)ccc21 [Example 9-235]	0.00625
COCc1nc2cc(COC(=O)Nc3cc(-c4ccc(Cl)cc4OC)nn3C)ccc2n1C [Example 9-274]	1
Cc1cc(/C=N/NC(=O)c2sc(C3CCCCC3)nc2C)cc(C)c1O [Example 23-129]	10
CCn1cnc2cc(COC(=O)Nc3cc(-c4ccc(C)cc4OC)nn3C)ccc21 [Example 9-228]	0.00625
CCn1nc(-c2ccc(Cl)cc2OC)cc1NC(=O)OCc1ccc2c(c1)nc1n2CCOC1 [Example 9-248]	0.025
CCCn1cnc2cc(COC(=O)Nc3sc(-c4ccc(Cl)cc4OC)nc3C)ccc21 [Example 9-67]	0.025
CCn1ncc2cc(NC(=O)OCc3sc(-c4ccc(F)cc4C)nc3C)ccc21 [Example 13-44]	0.1
COc1cc(F)ccc1-c1cc(NC(=O)OCc2ccc3c(c2)nc2n3CCOC2)n(C)n1 [Example 9-245]	0.025
CCn1cnc2cc(COC(=O)Nc3sc(-c4ccc(Cl)cc4OC)nc3C)ccc21 [Example 9-59]	0.00625
COc1cc(Cl)ccc1-c1nc(C)c(NC(=O)OCc2ccc3c(c2)nc(C)n3C)s1 [Example 9-76]	0.025
COc1ccc(/C=N/NC(=O)c2sc(-c3sc(C)nc3C)nc2C)cc1O [Example 23-134]	1
COc1ccccc1-c1cc(COC(=O)Nc2ccc3c(c2)nc2n3CCC2)n(C)n1 [Example 13-105]	0.025
Cc1nc(-c2ccc(Cl)cc2)sc1C(=O)N/N=C/c1ccc2c(c1)CCO2 [Example 23-152]	10
Cc1ccccc1-c1cc(C(=O)N/N=C/c2cc(C)c(O)c(C)c2)sn1 [Example 27-10]	0.1
CCc1nc(-c2ccccc2OC)sc1NC(=O)OCc1ccc2c(c1)ncn2C [Example 9-161]	0.025
CCn1cnc2cc(COC(=O)Nc3cc(-c4ccccc4C(F)(F)F)nn3C)ccc21 [Example 9-212]	10

Structure (SMILES)	minimal effective concentration [µM]
Cc1cc(F)ccc1-c1nc(C)c(NC(=O)OCc2ccc3c(c2)ncn3C)s1 [Example 9-48]	0.00625
COc1ccccc1-c1nc(C)c(C(=O)N/N=C/c2ccc3ncccc3c2)s1 [Example 23-97]	0.1
COc1ccc(/C=N/NC(=O)c2sc(-c3cccc(Cl)c3C)nc2C)cc1O [Example 23-125]	1
Cc1cc(Cl)ccc1-c1nc(C)c(NC(=O)OCc2ccc3c(c2)nc2n3CCCC2)s1 [Example 9-115]	0.1
CCn1nc(-c2ccc(F)cc2OC)cc1COC(=O)Nc1ccc2c(c1)ncn2C [Example 13-81]	0.025
CCc1nc(-c2ccc(Cl)cc2OC)sc1NC(=O)OCc1ccc2c(c1)nnn2CC [Example 9-160]	0.025
COc1ccc(/C=N/NC(=O)c2sc(C)nc2C)cc1O [Example 23-132]	10
Cc1cc(/C=N/NC(=O)c2oc(-c3ccc(Cl)cc3)nc2C)cc(C)c1O [Example 26-1, 2-(4-Chlorophenyl)-4-methyloxazole-5-carboxylic acid[N′-(4-hydroxy-3,5-dimethylphenyl)methylidene]hydrazide]	10
CCn1c(C)nc2cc(COC(=O)Nc3sc(-c4ccc(Cl)cc4OC)nc3C)ccc21 [Example 9-86]	0.025
COc1ccc(/C=N/NC(=O)c2sc(-c3ccc(F)cc3)nc2C)cc1O [Example 23-73]	0.1
Cc1ccc(-c2nc(C)c(NC(=O)OCc3ccc4c(c3)nc3n4C(C)CCC3)s2)c(C)c1 (centres unmarked) [Example 9-118]	10
COc1ccc(/C=N/NC(=O)c2oc(-c3ccccc3OC)nc2C)cc1O [Example 26-2, 2-(2-Methoxyphenyl)-4-methyloxazole-5-carboxylic acid[N′-(3-hydroxy-4-methoxylphenyl)methylidene]hydrazide]	10
COc1cc(Cl)ccc1-c1nc(C)c(NC(=O)OCc2ccc3c(c2)nc2n3CCN(C)C2)s1 [Example 38-1, [2-(4-Chloro-2-methoxyphenyl)-4-methylthiazol-5-yl]carbamic acid 2-methyl-1,2,3,4-tetrahydrobenzo[4,5]imidazo[1,2-a]pyrazin-8-ylmethyl ester]	1
Cc1cc(/C=N/NC(=O)c2snc(-c3ccc(Cl)cc3Cl)c2N)cc(C)c1O [Example 27-15, 4-Amino-3-(2,4-dichlorophenyl)isothiazole-5-carboxylic acid[1-(4-hydroxy-3,5-dimethylphenyl)methylidene]hydrazide]	10
Cc1cccnc1-c1cc(C(=O)N/N=C/c2cc(C)c(O)c(C)c2)sn1 [Example 27-13]	0.1
COc1cc(Cl)ccc1-c1cc(NC(=O)OCc2ccc3c(c2)ncn3C)n(C)n1 [Example 9-221]	0.00625
COc1ccc(/C=N/NC(=O)c2sc(-c3cccc(Cl)c3Cl)nc2C)cc1O [Example 23-15]	0.1
COc1ccc(CN(C)NC(=O)c2sc(-c3ccc(OC)cc3Cl)nc2C)cc1 [Example 16-9]	10
Cc1cc(Cl)ccc1-c1nc(C)c(COC(=O)Nc2ccc3c(c2)nc2n3CCCCC2)s1 [Example 13-39]	1
COc1cc(/C=N/NC(=O)c2sc(-c3ccc(Cl)cc3OC)nc2C)ccc1O [Example 23-81]	10
CCc1nc2cc(COC(=O)Nc3cc(-c4ccc(Cl)cc4OC)nn3C)ccc2n1C [Example 9-242]	0.1
